Laboratory results reported in BindingDB's records for doi:10.7270/Q2MK6B9H (Nmmlsc, 2009).
pEC50: −log10 of the molar value.

These compounds were tested against Ras-related protein Rab-7a (Canis lupus familiaris, UniProt P18067) (assay: Rab7 wildtype GTP binding inhibitors, SAR follow-up, biochemical, dog Rab7, bead multiplex flow cytometry, Bodipy-FL-GTP, pyrazoline series (AID 2041)).
Ras-related protein Rab-7a, sequence (P18067 whole entry): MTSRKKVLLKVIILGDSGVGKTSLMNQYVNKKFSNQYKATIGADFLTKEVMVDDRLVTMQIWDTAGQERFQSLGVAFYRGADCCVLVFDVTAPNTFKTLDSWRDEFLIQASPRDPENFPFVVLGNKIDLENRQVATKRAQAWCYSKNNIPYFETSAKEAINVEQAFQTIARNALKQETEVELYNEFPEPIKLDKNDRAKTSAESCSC

Row | pEC50 | SMILES
1 | < 4.52 | NS(=O)(=O)c1ccc(N2N=C(c3ccccc3)CC2c2ccccc2)cc1 (stereo unspecified) [4-(3,5-diphenyl-3,4-dihydropyrazol-2-yl)benzenesulfonamide]
2 | < 4.52 | COc1ccc(C2CC(C)=NN2c2ccc(S(N)(=O)=O)cc2)cc1 (stereo unspecified) [4-[3-(4-methoxyphenyl)-5-methyl-3,4-dihydropyrazol-2-yl]benzenesulfonamide]
3 | < 4.52 | CN(C)c1ccc(C2CC(c3ccc(Br)cc3)=NN2c2ccccc2)cc1 (stereo unspecified) [UNM-0000305846]
4 | < 4.52 | COc1ccc(C2CC(c3cccc(Br)c3)=NN2c2ccc(S(N)(=O)=O)cc2)cc1 (stereo unspecified) [UNM-0000306113]
5 | < 4.52 | COc1ccc(C2CC(C(C)(C)C)=NN2c2ccc(S(N)(=O)=O)cc2)cc1 (stereo unspecified) [KUC103450N]
6 | < 4.52 | O=C(O)c1ccc(N2N=C(c3ccccc3)CC2c2ccccc2)cc1 (stereo unspecified)
7 | < 4.52 | COc1cccc(C2CC(c3ccccc3)=NN2c2ccc(S(N)(=O)=O)cc2)c1 (stereo unspecified) [4-[3-(3-methoxyphenyl)-5-phenyl-3,4-dihydropyrazol-2-yl]benzenesulfonamide]
8 | < 4.52 | NS(=O)(=O)c1ccc(N2N=C(c3ccccc3)CC2c2ccc(Br)cc2)cc1 (stereo unspecified) [UNM-0000306160]
9 | < 4.52 | NS(=O)(=O)c1ccc(N2N=C(c3ccccc3)CC2c2cccc(Cl)c2)cc1 (stereo unspecified) [UNM-0000306161]
10 | < 4.52 | COc1ccc(-c2cc(-c3ccccc3)nn2-c2ccc(S(N)(=O)=O)cc2)cc1 [4-[5-(4-methoxyphenyl)-3-phenylpyrazol-1-yl]benzenesulfonamide]
11 | < 4.52 | COc1ccc(C2=NN(c3ccccc3)C(c3ccc(OC)c(OC)c3C(=O)O)C2)cc1 (stereo unspecified) [UNM-0000305848]
12 | < 4.52 | Cc1onc(-c2ccccc2)c1-c1ccc(S(N)(=O)=O)cc1
13 | < 4.52 | Cc1ccc(C2CC(c3ccccc3)=NN2c2ccc(S(N)(=O)=O)cc2)cc1 (stereo unspecified)
14 | < 4.52 | COc1ccc(C2CC(c3cccc(N(C)C)c3)=NN2c2ccc(S(N)(=O)=O)cc2)cc1 (stereo unspecified)
15 | < 4.52 | COc1ccc(C2=NN(c3ccc(Cl)cc3)C(c3ccccc3F)C2)cc1 (stereo unspecified) [UNM-0000305863]
16 | < 4.52 | COc1ccc(C2CC(c3cccc(C)c3)=NN2c2ccc(S(N)(=O)=O)cc2)cc1 (stereo unspecified) [UNM-0000306153]
17 | < 4.52 | COc1ccc(C2C[C-](c3ccccc3)N=[N+]2c2ccc([N+](=O)[O-])cc2)cc1 (stereo unspecified) [3-(4-methoxyphenyl)-2-(4-nitrophenyl)-5-phenyl-3,4-dihydropyrazole]
18 | < 4.52 | COc1ccc(C2CC(c3ccccc3Cl)=NN2c2ccc(S(N)(=O)=O)cc2)cc1 (stereo unspecified) [4-[5-(2-chlorophenyl)-3-(4-methoxyphenyl)-3,4-dihydropyrazol-2-yl]benzenesulfonamide]
19 | < 4.52 | O=S(=O)(O)c1ccc(N2N=C(c3ccccc3)CC2c2ccccc2)cc1 (stereo unspecified) [UNM-0000305834]
20 | < 4.52 | COc1ccc(C2CC(c3ccccc3C(F)(F)F)=NN2c2ccc(S(N)(=O)=O)cc2)cc1 (stereo unspecified) [KUC103474N]
21 | < 4.52 | COc1ccc(C2CC(c3ccsc3)=NN2c2ccc(S(N)(=O)=O)cc2)cc1 (stereo unspecified) [4-[3-(4-methoxyphenyl)-5-thiophen-3-yl-3,4-dihydropyrazol-2-yl]benzenesulfonamide]
